# Assay results: patent EP1878738A1, “ALLERGY-SUPPRESSIVE COMPOSITION, ALLERGY-SUPPRESSIVE FOOD AND ALLERGY-SUPPRESSIVE AGENT” (priority 2005, dated 2006)
# Like-named read-outs stand apart in the source and are kept apart here.
# Assays:
# [1] = Volunteer experiment on bowel movement, daily dose 2g; assay type: in vivo, human; settings: daily dose of 2g; volunteer subjects
# Excerpt: (§1) According to the results of each above-mentioned Example, it was confirmed that an adult can have the effect of 1-kestose as prebiotics with a daily dose of 3g. […] The subjects were 4 health adult males whose age ranges from 38 to 56. The subject A is 67kg, subject B is 56kg, subject C is 59kg and subject D is 63kg in weight.
# [2] = system: anti-OVA IgG1; experiment: Example 2: oral immune tolerance, serum anti-OVA IgG1 by ELISA in human-flora associated mice; assay type: in vivo; settings: 1-kestose-administered group, 41 without 1-kestose, germfree mice 1583
# Description: (§2) In Example 2, to examine the effect of 1-kestose on the production of IgG1 and IgE, 1-kestose was administered to germfree […] to measure IgG1 and IgE amounts in the serum before and after giving 1-kestose.
# (§3) In this Example 2, the mice used in the experiment were male […] with 4 weeks of age born and grown in a germfree condition (BALB/c), with 10 to 15 rats as a group. These mice were orally provided with 0.5ml of a liquid obtained by diluting feces of human infants 100 times and observed in a germfree condition for two weeks. Afterward, 5mg of ovalbumin (OVA) was orally administered to the mice for 4 days. To examine the existence of immune tolerance, a liquid obtained by adding 0.1 mg of aluminum hydroxide gel to 1 µg of OVA was injected into the abdominal cavity, 1, 3, 5 and 7 weeks after orally administering OVA. These human-flora associated mice were separated into 1-kestose-administered group and non-administered control group and anti-OVA IgG1 and anti-OVA IgE in the serum were measured by ELISA method, 9 weeks after administering 1-kestose.
# [3] = system: anti-OVA IgE; experiment: Example 2: oral immune tolerance, serum anti-OVA IgE by ELISA in human-flora associated mice; assay type: in vivo; settings: 1-kestose-administered group, 204 without 1-kestose, germfree mice 496
# Description: as §2, §3
# [4] = system: infants with atopic dermatitis; experiment: Example 7: clinical test in infants with atopic dermatitis, eruption severity; assay type: in vivo, human
# Excerpt: (§4) The test subjects were 13 infants with atopic dermatitis and mild and severe eruption (age: 0 to 3 years old) in which food allergic symptoms were accompanied. The test was approved by parents of the subjects.
# (§5) In the clinical test, the subjects were kept under observation for 2 weeks and they took 1-kestose with a purity of 98% mixed with water or juice once a day for 12 weeks. The subjects at age 1 or under were provided with 1g of 1-kestose a day and those at age 2 to 3 took 2g of 1-kestose a day. The test subjects used no external preparation of steroid for one month or more before taking 1-kestose. During the test, the subjects were treated mainly with a humectant and took food allergen removing food.
# (§6) The subjects were diagnosed at the start of, 6 and 12 weeks after taking 1-kestose, and 4 to 8 weeks after the intake completion to assess the clinical test results (examination of dermis severity and stool samples). The inspection 4 to 8 weeks after the intake completion was aimed at examining drug efficacy sustaining effect. In the stool sample inspection, feces were collected form the subjects to calculate bifidobacterial occupancy in the feces. The eruption severity was examined using Severity Determination Method by Region of Severity Discussion Committee of Japanese Dermatological Association, in which by separating the entire body into 5 regions: head, anterior and posterior parts of the trunk, upper and lower extremities, the sum of comprehensive assessments is calculated in each region (on 0 to 4 scales).
# [5] = system: Bifidobacterium; experiment: Example 1: intestinal bacteria in feces, anaerobic plate culture (Bifidobacterium); assay type: in vivo, human; settings: after 3g for one month
# Excerpt: (§7) The composition, containing 1-kestose used in this Example 1, is of a 1-kestose purity of 98%, composed of 1-kestose (98 weight %), nystose (1.0 weight %) and sucrose (1.0 weight %). An allergy-suppressive composition, having 1-kestose as an active ingredient, was given to 4 adult males having allergic symptoms, with each dose of 3g for one month. The feces before and after the composition was taken were collected to measure IgA and intestinal bacteria in the feces.
# Meanwhile, to measure intestinal bacteria, a sample liquid for measurement was dripped on a flat-plate agar medium by 0.05ml and applied thereon. After anaerobic culture of the sample at 35°C for 3 to 5 days, the bacteria were identified and bacterial count was found.
# [6] = system: nonspecific IgE; experiment: Example 5: nonspecific IgE after 1-kestose and after fructooligosaccharide intake; assay type: in vivo, human
# Description: In this Example 5, the subjects were 4 adult females (from 27 to 45 years old) with daily allergic symptoms. They took 1-kestose and fructooligosaccharide and nonspecific IgE of each subject was measured. In this experiment, nonspecific IgE before taking the substances was measured and then the subjects took 3g of 1-kestose after eating once a day for 4 weeks. The blood was collected 5 weeks later to measure nonspecific IgE and afterward they took no substances for 2 weeks. Then, the subjects took 3g of fructooligosaccharide after eating once a day for 4 weeks and the blood was collected. The 1-kestose used in this Example 5 has a purity of 95% or more, and the commercially-available fructooligosaccharide is a nystose-dominant oligosaccharide composed of nystose (51 %) and 1-kestose (36%). In the experiment, the subjects took less health foods like prebiotics and probiotics containing other oligosaccharides and Lactobacillus.
# [7] = assay type: in vivo, human; settings: many subjects; 1g or 2g a day for 12 weeks
# Excerpt: as §5, with “The test subjects were 13 infants with atopic dermatitis and mild and severe eruption (age: 0 to 3 years old) in which food allergic symptoms were accompanied. The test was approved by parents of the subjects. In” for “In”
# [8] = system: Bifidobacterium; experiment: Example 4: improvement of enterobacterial flora in germfree mice, proportion of Bifidobacterium; assay type: in vivo; settings: orally administered for 5 days
# Excerpt: In this Example 4, the effect of improving the enterobacterial flora of each composition composed of fructooligosaccharide was compared, using germfree mice. The fructooligosaccharide is composed of kestose (trisaccharide), nystose (tetrasaccharide) and F-nystose (pentasaccharide). The kestose used in this Example 4 is composed of 1-kestose (99.0%), nystose (0.5%) and sucrose (0.5%). The nystose is composed of nystose (99.0%), 1-kestose (0.9%) and sucrose (0.1 %). The F-nystose is composed of F-nystose (82.0%), other pentasaccharides (13.0%) and other components (5.0%). Additionally, control groups of mice dosed with sterile water and dosed with usual fructooligosaccharide (1-kestose: 35.8 weight %, nystose: 50.9 weight %, F-nystose: 8.5 weight %) were prepared and their data were obtained for comparison. […] Each oligosaccharide was orally administered to germfree mice for 5 days to determine the proportion of Bifidobacterium proliferated to total bacterial count.
# [9] = system: Bifidobacterium; experiment: Example 6: effective amount of 1-kestose, Bifidobacterium count in feces; assay type: in vivo, human; settings: for minimal effective dose: Bifidobacterium, po, read-out: effective amount of 1-kestose per 1kg body weight
# Excerpt: as §1
# In the experiment, feces were first collected from each subject before taking 1-kestose, and counts of Bifidobacterium, Lactobacillus, Clostridium and total bacteria were measured. Then, they took 1g of 1-kestose once a day for 2 weeks. 15 days later, feces were collected from each subject to measure intestinal bacteria. Afterward, they took no 1-kestose for one week. From the 22nd day, they took 3g of 1-kestose once a day for two weeks, and feces were collected from each subject on the 36th day to measure intestinal bacteria. Figure 13 and Figure 14 show the results.
# [10] = system: nonspecific IgE; experiment: Example 3: nonspecific IgE in human serum before and after taking 1-kestose; assay type: in vivo; settings: adult with allergic symptoms, 3g for one month, standard value 366
# Excerpt: In this Example 3, to examine the effect of 1-kestose on IgE amount in the human serum, the subjects were given 1-kestose to measure nonspecific IgE amount in the serum before and after taking 1-kestose.
# [11] = Example 6: 1-kestose intake with no side effect (diarrhea, organs, blood); parameters: species or system human; settings: in vivo
# Excerpt: Meanwhile, the 1-kestose intake with no side effect was examined.
# [12] = system: Bifidobacterium; experiment: Example 7: clinical test, bifidobacterial occupancy in feces; assay type: in vivo, human; settings: before 30.1 %
# Excerpt: as §4, §5, §6
# [13] = system: IgA; experiment: Example 1: IgA in feces by ELISA before and after taking 1-kestose; assay type: in vivo, human
# Excerpt: as §7
# To measure IgA, the collected feces were diluted 20 times with phosphate buffered saline (PBS) and supernatant was collected by a centrifugal separator. Then, the liquid was diluted 10 times with water to make a sample for measurement. Also, an anti-human IgA mouse monoclonal antibody (product of Nacalai Tesque Inc.), and a horseradish peroxidase (HRP)-labeled antibody by labeling the antihuman IgA mouse monoclonal antibody with HRP were prepared. Afterward, IgA was measured using ELISA method.
# [14] = in vivo
# Excerpt: The subjects were 2 volunteer patients with allergic symptoms (adult male and female each). They took 3g of 1-kestose for one month and blood components like nonspecific IgE in the serum were examined.
compound,measurement,setting,value
OC[C@H]1O[C@@](CO)(OC[C@@]2(O[C@H]3O[C@H](CO)[C@@H](O)[C@H](O)[C@H]3O)O[C@H](CO)[C@@H](O)[C@@H]2O)[C@@H](O)[C@@H]1O [1-kestose],effect on bowel movement,[1],improving bowel movement
same,anti-OVA IgG1 in the serum,[2],31 unit/ml
same,anti-OVA IgE in the serum,[3],156 unit/ml
same,"eruption (dermis severity, Japanese Dermatological Association method by region)","[4]; 13 infants 0 to 3 years, 1g or 2g a day for 12 weeks, p 0.0022 start vs 12 weeks, p 0.0025 start vs 4 to 8 weeks after completion",significant improvement in eruption
same,number of subjects with no deterioration or recurrence of eruption,"[4]; of 11 subjects, 4 to 8 weeks after taking 1-kestose for 12 weeks",Seven
same,number of subjects who completely removed eruption,"[4]; of 13 subjects, 4 to 8 weeks after taking 1-kestose for 12 weeks",6
same,mean bifidobacterial occupancy relative to the total bacterial count,"[5]; mean, before 19.97%",43.05%
same,bifidobacterial occupancy relative to the total bacterial count,"[5]; subject A, before 11.67%",52.38%
same,bifidobacterial occupancy relative to the total bacterial count,"[5]; subject B, before 38.57%",57.14%
same,mean nonspecific IgE,"[6]; mean of 4 adult females, 3g once a day for 4 weeks, before 403.8",298.8 IU/ml
same,decrease in mean nonspecific IgE,"[6]; mean of 4 subjects, vs before taking",approximately 26%
same,nonspecific IgE,"[6]; subject A, 3g once a day for 4 weeks, before 541",298 IU/ml
same,decrease in nonspecific IgE,"[6]; subject A, vs before taking",approximately 45%
same,nonspecific IgE,"[6]; subject B, 3g once a day for 4 weeks, before 422",282 IU/ml
same,decrease in nonspecific IgE,"[6]; subject B, vs before taking",≥ 32%
same,nonspecific IgE,"[6]; subject C as printed, 3g once a day for 4 weeks, before 323",275 IU/ml
same,decrease in nonspecific IgE,"[6]; subject C as printed, vs before taking",approximately 25%
same,increase in nonspecific IgE,"[6]; subject C, vs before taking",about 3%
same,bowel movement,[7],improved bowel movement
same,proportion of Bifidobacterium proliferated to total bacterial count,[8],12.59%
same,minimal effective dose,[9]; mean value,16 mg/kg
same,minimal effective dose,[9]; subject A (67kg),15 mg/kg
same,minimal effective dose,[9]; subject B (56kg),18 mg/kg
same,minimal effective dose,[9]; subject C (59kg),17 mg/kg
same,minimal effective dose,[9]; subject D (63kg),16 mg/kg
same,effective 1-kestose amount,[9]; adult with a weight of at least 60kg,1 g per day
same,nonspecific IgE in the serum,[10]; before 381,313 IU/ml
same,nonspecific IgE in the serum,[10]; before 505,354 IU/ml
same,1-kestose intake with no side effect,"[11]; human, po",≤ 400 mg/kg/day
same,diarrhea,[11],no diarrhea
same,diarrhea symptoms,[11],no diarrhea symptoms
same,effect on organs and blood component,[11],no effect on organs and blood component
same,mean bifidobacterial occupancy in feces,[12]; 4 to 8 weeks after completion of 12 weeks intake,32.7%
same,mean bifidobacterial occupancy in feces,"[12]; 9 subjects, 6 weeks after taking",42.3%
same,mean bifidobacterial occupancy in feces,"[12]; 9 subjects, 12 weeks after taking, p 0.0308 vs start",56.0%
same,increase of mean IgA concentration in feces,[13]; after vs before taking 3g for one month,≥ 1.7 times
same,mean IgA concentration in feces,"[13]; mean of 4 adult males with allergic symptoms, 3g for one month, 0.61 before taking",1.06 µg/mL
same,increase of IgA concentration in feces,"[13]; subjects A to C, 3g for one month",twice or more
same,C-reactive protein (CRP) value,[14],negative
same,"effect on hepatic functions, other organs and blood components",[14],"no effect on hepatic functions, etc., other organs and blood components"
OC[C@H]1O[C@@](CO)(OC[C@@]2(OC[C@@]3(OC[C@@]4(O[C@H]5O[C@H](CO)[C@@H](O)[C@H](O)[C@H]5O)O[C@H](CO)[C@@H](O)[C@@H]4O)O[C@H](CO)[C@@H](O)[C@@H]3O)O[C@H](CO)[C@@H](O)[C@@H]2O)[C@@H](O)[C@@H]1O [F-nystose],proportion of Bifidobacterium proliferated to total bacterial count,[8],7.94%
OC[C@H]1O[C@@](CO)(OC[C@@]2(OC[C@@]3(O[C@H]4O[C@H](CO)[C@@H](O)[C@H](O)[C@H]4O)O[C@H](CO)[C@@H](O)[C@@H]3O)O[C@H](CO)[C@@H](O)[C@@H]2O)[C@@H](O)[C@@H]1O [nystose],proportion of Bifidobacterium proliferated to total bacterial count,[8],7.94%
